Columns and labels:
Format in all cases: cell-based
senescent IMR90 cells = experiment: Senescence assay, viability of senescent IMR90 cells (CellTiter-Glo or XTT); conditions: Homo sapiens, IMR-90; chemotherapy-induced senescent IMR90 cells; compounds 24-72 hours; viability relative to untreated control; read-out: Absolute IC50 average IMR90_SEN IC50
Protocol: (§1) Cells were maintained in DMEM media (high glucose, 4 mM L-glutamine, no sodium pyruvate) supplemented with 10% fetal bovine serum in a humidified incubator at 37° C. with 5% carbon dioxide. Senescence was induced via treatment with a sublethal concentration of chemotherapy (bleomycin, gemcitabine, doxorubicin, 5-fluorouridine, mitomycin C), followed by a rest period without chemotherapy similarly to what is reported by others in the field (e.g., Aoshiba et al., 2003 Eur Respir J 22:436-443). Senescence was qualified by low EdU (5-ethynyl-2′-deoxyuridine) incorporation and high SA-β-Gal (senescence-associated beta-galactosidase) staining compared to proliferating untreated cells. Senescent cells were plated into 96-well plates at a density of 5-15,000 cells/well. The next day, compounds were added in duplicate across ten different concentrations spanning roughly four Log10 units. Cells were incubated with the compounds for 24-72 hours, at which point viability was quantified using CellTiter-Glo (Promega) or XTT (R&D Systems). The viability for treated cells was determined relative to untreated control cells. The log of the compound concentration vs. normalized mean viability was fit to a four parameters Hill function with variable slope. The bottom was constrained to be greater than zero. The X mean value for Y=50 was interpolated to determine the absolute IC50. The results in Table 1 indicate that many of the compounds are active in cells and can induce a dose dependent decrease in the viability of senescent A549 and IMR90 cells.

senescent A549 cells = experiment: Senescence assay, viability of senescent A549 cells (CellTiter-Glo or XTT); conditions: Homo sapiens; chemotherapy-induced senescent A549 cells; compounds 24-72 hours; viability relative to untreated control; read-out: Absolute IC50 average A549_SEN IC50
Protocol: as §1

HACAT_SEN = experiment: Senescence assay, viability of senescent HACAT cells (CellTiter-Glo or XTT); conditions: Homo sapiens, compounds 24-72 hours, viability relative to untreated control, read-out: Absolute IC50 average HACAT_SEN IC50
Protocol: as §1, with “The results in Table 1 indicate that many of the compounds are active in cells and can induce a dose dependent decrease in the viability of senescent A549 and IMR90 cells.” left out

| IC50 (senescent A549 cells) | SMILES | IC50 (senescent IMR90 cells) | IC50 (HACAT_SEN) |
| --- | --- | --- | --- |
| 0.01 to 0.1 µM | Cc1c(-c2ccc(N3CCc4cccc(C(=O)Nc5nc6ccccc6s5)c4C3)nc2P(C)(=O)OCc2ccc(O[C@@H]3O[C@@H](C)[C@@H](O)[C@@H](O)[C@@H]3O)cc2)cnn1CC12CC3CC(CC(C3)C1)C2 (stereo partly drawn) [Compound 3, 4-(((2S,3S,4R,5S,6S)-3,4,5-trihydroxy-6-methyltetrahydro-2H-pyran-2-yl)oxy) benzyl(3-(1-(((3r,5r,7r)-adamantan-1-yl)methyl)-5-methyl-1H-pyrazol-4-yl)-6-(8-(benzo[d]thiazol-2-ylcarbamoyl)-3,4-dihydroisoquinolin-2 (1H)-yl)pyridin-2-yl)(methyl)phosphinate] | 0.1 to 1 µM | – |
| 0.1 to 1 µM | Cc1cc(N(C)c2nc(P(C)(=O)O)c(CCCOc3ccc(C#CCN(C)C)cc3F)s2)nnc1Nc1nc2ccccc2s1 [Compound 4, (2-((6-(benzo[d]thiazol-2-ylamino)-5-methylpyridazin-3-yl)(methyl)amino)-5-(3-(4-(3-(dimethylamino)prop-1-yn-1-yl)-2-fluorophenoxy)propyl)thiazol-4-yl)(methyl)phosphinic acid] | 1 to 10 µM | – |
| 0.01 to 0.1 µM | Cc1c(-c2ccc(N3CCc4cccc(C(=O)Nc5nc6ccccc6s5)c4C3)nc2P(C)(=O)O)cnn1CC12CC3CC(CC(C3)C1)C2 [Compound 2, (3-(1-(((3r,5r,7r)-adamantan-1-yl)methyl)-5-methyl-1H-pyrazol-4-yl)-6-(8-(benzo[d]thiazol-2-ylcarbamoyl)-3,4-dihydroisoquinolin-2 (1H)-yl)pyridin-2-yl)(methyl)phosphinic acid] | 0.1 to 1 µM | – |

| SMILES | IC50 (senescent A549 cells) | IC50 (senescent IMR90 cells) | IC50 (HACAT_SEN) |
| --- | --- | --- | --- |
| CCOP(C)(=O)c1nc(N2CCc3cccc(C(=O)Nc4nc5ccccc5s4)c3C2)ccc1-c1cnn(CC23CC4CC(CC(C4)C2)C3)c1C (stereo not drawn) [Compound 1, ethyl(3-(1-(((3r,5r,7r)-adamantan-1-yl)methyl)-5-methyl-1H-pyrazol-4-yl)-6-(8-(benzo[d]thiazol-2-ylcarbamoyl)-3,4-dihydroisoquinolin-2 (1H)-yl)pyridin-2-yl)(methyl)phosphinate] | 0.01 to 0.1 µM | 0.01 to 0.1 µM | < 0.01 µM |
